{"source": "DBAASP", "experiment_in_all_cases": "≥ marks a high value that may be exact or a test limit, other limits are often not marked, values filed in µg/mL are converted to µM", "key": {"Escherichia coli": {"tested_on": "Escherichia coli"}, "Listeria innocua": {"tested_on": "Listeria innocua"}, "Micrococcus luteus A270": {"tested_on": "Micrococcus luteus A270"}, "[1]": {"tested_on": "Staphylococcus aureus NCTC 8325"}, "[2]": {"tested_on": "Candida albicans ATCC 90028"}, "[3]": {"tested_on": "Escherichia coli ATCC 25922"}, "[4]": {"tested_on": "Bacillus subtilis ATCC 6633"}, "[5]": {"tested_on": "Candida albicans ATCC 10231"}, "Escherichia coli D31": {"tested_on": "Escherichia coli D31"}, "[6]": {"tested_on": "Pseudomonas aeruginosa ATCC 15442"}, "[7]": {"tested_on": "Pseudomonas aeruginosa PAO1"}, "[8]": {"tested_on": "Staphylococcus aureus ATCC 25923"}, "[9]": {"tested_on": "Staphylococcus aureus ATCC 43300"}, "Staphylococcus aureus MR": {"tested_on": "Staphylococcus aureus MR"}, "[10]": {"tested_on": "Streptococcus mutans ATCC 25175"}, "Acinetobacter baumannii": {"tested_on": "Acinetobacter baumannii"}, "Enterococcus faecium": {"tested_on": "Enterococcus faecium"}, "Klebsiella pneumoniae": {"tested_on": "Klebsiella pneumoniae"}, "Pseudomonas aeruginosa": {"tested_on": "Pseudomonas aeruginosa"}, "Streptococcus pneumoniae": {"tested_on": "Streptococcus pneumoniae"}, "Candida albicans": {"tested_on": "Candida albicans"}, "[11]": {"tested_on": "Micrococcus luteus ATCC 9341"}, "Salmonella typhimurium": {"tested_on": "Salmonella typhimurium"}, "Staphylococcus aureus": {"tested_on": "Staphylococcus aureus"}, "[12]": {"tested_on": "Escherichia coli DH5alpha"}, "Staphylococcus xylosus": {"tested_on": "Staphylococcus xylosus"}, "[13]": {"tested_on": "Pseudomonas aeruginosa H1001"}}}
{"compound": "CC(C)[C@H](NC(=O)[C@@H]1CCCN1C(=O)[C@@H](NC(=O)[C@H](Cc1ccccc1)NC(=O)[C@H](CCC(=O)O)NC(=O)[C@H](CCCCN)NC(=O)CNC(=O)[C@H](Cc1ccccc1)NC(=O)[C@H](CC(N)=O)NC(=O)[C@H](CCCN=C(N)N)NC(=O)[C@H](C)N)[C@@H](C)O)C(=O)O", "note": "[ARNFGKEFTPV]", "values": [{"measurement": "MIC", "setting": "Escherichia coli", "result": 12, "unit": "µM"}, {"measurement": "MIC", "setting": "Listeria innocua", "result": 6, "unit": "µM"}, {"measurement": "MIC", "setting": "Micrococcus luteus A270", "result": 6, "unit": "µM"}]}
{"compound": "CC(C)C[C@H](NC(=O)[C@@H](NC(=O)[C@H](CCCCN)NC(=O)[C@H](CO)NC(=O)[C@H](CC(C)C)NC(=O)[C@H](CC(C)C)NC(=O)[C@H](CO)NC(=O)[C@H](C)NC(=O)[C@H](CC(C)C)NC(=O)[C@H](Cc1ccccc1)NC(=O)[C@@H]1CCCN1C(=O)[C@H](CC(C)C)NC(=O)[C@@H](N)Cc1ccccc1)C(C)C)C(N)=O", "note": "[FLPFLASLLSKVL]", "values": [{"measurement": "MIC", "setting": "[1]", "result": "≥ 80", "unit": "µM"}]}
{"compound": "CC[C@H](C)[C@@H]1NC(=O)[C@H](C)NC(=O)[C@@H](NC(=O)[C@@H](NC(=O)[C@@H](NC(=O)[C@H](CCCCN)NC(=O)[C@H](C)NC(=O)[C@H](C)NC(=O)[C@H](CCSC)NC(=O)CNC(=O)[C@H](C)NC(=O)[C@@H](NC(=O)[C@@H](NC(=O)[C@@H]2CCCN2C(=O)[C@H](CC(C)C)NC(=O)[C@@H](N)Cc2ccccc2)[C@@H](C)CC)[C@@H](C)CC)C(C)C)[C@@H](C)CC)CSSC[C@@H](C(=O)O)NC(=O)[C@H](CCCCN)NC(=O)[C@H](CCCCN)NC(=O)[C@H]([C@@H](C)O)NC1=O", "note": "[FLPIIAGMAAKVICAITKKC]", "values": [{"measurement": "MIC", "setting": "[2]", "result": 13, "unit": "µM"}, {"measurement": "MIC", "setting": "[3]", "result": 50, "unit": "µM"}, {"measurement": "MIC", "setting": "[1]", "result": 6, "unit": "µM"}]}
{"compound": "CC[C@H](C)[C@H](NC(=O)[C@H](Cc1cnc[nH]1)NC(=O)[C@H](CCC(N)=O)NC(=O)[C@H](CC(C)C)NC(=O)[C@@H](N)Cc1ccccc1)C(=O)N[C@H](C(=O)NCC(=O)N[C@@H](C)C(=O)N[C@@H](CC(C)C)C(=O)NCC(=O)N[C@@H](CCCCN)C(=O)N[C@@H](CC(C)C)C(=O)N[C@@H](Cc1ccccc1)C(N)=O)[C@@H](C)CC", "note": "[FLQHIIGALGKLF]", "values": [{"measurement": "MIC", "setting": "[4]", "result": 25, "unit": "µM"}, {"measurement": "MIC", "setting": "[5]", "result": 50, "unit": "µM"}, {"measurement": "MIC", "setting": "[3]", "result": 12.5, "unit": "µM"}, {"measurement": "MIC", "setting": "Escherichia coli D31", "result": "≥ 50", "unit": "µM"}, {"measurement": "MIC", "setting": "[6]", "result": "≥ 50", "unit": "µM"}, {"measurement": "MIC", "setting": "[7]", "result": "> 100", "unit": "µM"}, {"measurement": "MIC", "setting": "[8]", "result": 1.6, "unit": "µM"}, {"measurement": "MIC", "setting": "[9]", "result": 6.2, "unit": "µM"}, {"measurement": "MIC", "setting": "Staphylococcus aureus MR", "result": 6.2, "unit": "µM"}, {"measurement": "MIC", "setting": "[10]", "result": 6.2, "unit": "µM"}]}
{"compound": "CC[C@H](C)[C@H](NC(=O)[C@H](Cc1cnc[nH]1)NC(=O)CNC(=O)CN)C(=O)N[C@@H](CCCN=C(N)N)C(=O)N[C@@H](CCCN=C(N)N)C(=O)N[C@H](C(=O)N[C@H](C(=O)N[C@@H](CCCN=C(N)N)C(=O)N[C@@H](CCCCN)C(=O)N[C@H](C(=O)N[C@H](C(=O)N[C@@H](Cc1cnc[nH]1)C(=O)N[C@H](C(=O)N[C@H](C(=O)N[C@@H](CCCCN)C(=O)N[C@@H](CCCCN)C(=O)NCC(=O)NCC(=O)N[C@@H](CS)C(N)=O)[C@@H](C)CC)[C@@H](C)CC)[C@@H](C)CC)[C@@H](C)CC)[C@@H](C)CC)[C@@H](C)CC", "note": "[GGHIRRIIRKIIHIIKKGGC]", "values": [{"measurement": "MIC", "setting": "Acinetobacter baumannii", "result": 10.7, "unit": "µM"}, {"measurement": "MIC", "setting": "Enterococcus faecium", "result": 3.3, "unit": "µM"}, {"measurement": "MIC", "setting": "[3]", "result": 1.3, "unit": "µM"}, {"measurement": "MIC", "setting": "Klebsiella pneumoniae", "result": 8, "unit": "µM"}, {"measurement": "MIC", "setting": "Pseudomonas aeruginosa", "result": 4, "unit": "µM"}, {"measurement": "MIC", "setting": "[9]", "result": 1.5, "unit": "µM"}, {"measurement": "MIC", "setting": "Streptococcus pneumoniae", "result": 4, "unit": "µM"}]}
{"compound": "CC[C@H](C)[C@H](N)C(=O)N[C@@H](CC(C)C)C(=O)N1CCC[C@H]1C(=O)N[C@@H](Cc1c[nH]c2ccccc12)C(=O)N[C@@H](CCCCN)C(=O)N[C@@H](Cc1c[nH]c2ccccc12)C(=O)N1CCC[C@H]1C(=O)N[C@@H](Cc1c[nH]c2ccccc12)C(=O)N[C@@H](Cc1c[nH]c2ccccc12)C(=O)N1CCC[C@H]1C(=O)N[C@@H](C)C(=O)N[C@@H](CCCN=C(N)N)C(=O)N[C@@H](CCCN=C(N)N)C(N)=O", "note": "[ILPWKWPWWPARR]", "values": [{"measurement": "MIC", "setting": "Candida albicans", "result": 4.5, "unit": "nM"}, {"measurement": "MIC", "setting": "Escherichia coli", "result": 2.79, "unit": "µM"}, {"measurement": "MIC", "setting": "[11]", "result": 1.6, "unit": "µM"}, {"measurement": "MIC", "setting": "Salmonella typhimurium", "result": 2.79, "unit": "µM"}, {"measurement": "MIC", "setting": "Staphylococcus aureus", "result": 44.6, "unit": "µM"}]}
{"compound": "NCCCC[C@H](NC(=O)[C@H](CCCN=C(N)N)NC(=O)[C@H](CCCCN)NC(=O)CNC(=O)[C@H](CO)NC(=O)CNC(=O)[C@H](CCCCN)NC(=O)[C@H](CCCN=C(N)N)NC(=O)[C@@H](N)CCCCN)C(=O)O", "note": "[KRKGSGKRK]", "values": [{"measurement": "MIC", "setting": "[12]", "result": "≥ 64", "unit": "µM"}, {"measurement": "MIC", "setting": "Staphylococcus xylosus", "result": "≥ 64", "unit": "µM"}]}
{"compound": "CC[C@H](C)[C@H](NC(=O)[C@H](CC(C)C)NC(=O)[C@H](CCCCN)NC(=O)[C@H](CCCN=C(N)N)NC(=O)[C@@H](N)CCCCN)C(=O)N[C@@H](CCCCN)C(=O)N[C@@H](CCCN=C(N)N)C(=O)N[C@@H](CCCCN)C(=O)O", "note": "[KRKLIKRK]", "values": [{"measurement": "MIC", "setting": "[12]", "result": "≥ 64", "unit": "µM"}, {"measurement": "MIC", "setting": "Staphylococcus xylosus", "result": "≥ 64", "unit": "µM"}]}
{"compound": "CC[C@H](C)[C@H](NC(=O)[C@H](CC(C)C)NC(=O)[C@@H](NC(=O)[C@H](CC(C)C)NC(=O)[C@@H](NC(=O)[C@H](CCCCN)NC(=O)[C@H](CCCN=C(N)N)NC(=O)[C@H](CCCCN)NC(=O)[C@H](CCCN=C(N)N)NC(=O)[C@@H](N)CCCCN)[C@@H](C)CC)[C@@H](C)CC)C(=O)N[C@@H](CCCCN)C(=O)N[C@@H](CCCN=C(N)N)C(=O)N[C@@H](CCCCN)C(=O)O", "note": "[KRKRKILILIKRK]", "values": [{"measurement": "MIC", "setting": "[12]", "result": 8, "unit": "µM"}, {"measurement": "MIC", "setting": "Staphylococcus xylosus", "result": 0.5, "unit": "µM"}]}
{"compound": "CC[C@H](C)[C@H](NC(=O)[C@H](CC(C)C)NC(=O)[C@@H](NC(=O)[C@@H](N)CC(C)C)[C@@H](C)CC)C(=O)N[C@@H](CCCCN)C(=O)N[C@@H](CCCN=C(N)N)C(=O)N[C@@H](CCCCN)C(=O)O", "note": "[LILIKRK]", "values": [{"measurement": "MIC", "setting": "[12]", "result": "≥ 64", "unit": "µM"}, {"measurement": "MIC", "setting": "Staphylococcus xylosus", "result": "≥ 64", "unit": "µM"}]}
{"compound": "CC[C@H](C)[C@H](NC(=O)[C@H](CCCN=C(N)N)NC(=O)[C@H](CCCN=C(N)N)NC(=O)[C@@H]1CCCN1C(=O)CNC(=O)[C@H](CCCN=C(N)N)NC(=O)[C@@H]1CCCN1C(=O)[C@H](CCCN=C(N)N)NC(=O)[C@@H]1CCCN1C(=O)[C@H](CC(C)C)NC(=O)[C@H](Cc1ccc(O)cc1)NC(=O)[C@@H]1CCCN1C(=O)[C@@H]1CCCN1C(=O)[C@H](CCCCN)NC(=O)[C@H](CC(=O)O)NC(=O)[C@@H](N)C(C)C)C(=O)N[C@@H](Cc1ccc(O)cc1)C(=O)N[C@@H](CC(N)=O)C(=O)N[C@@H](CCCN=C(N)N)C(=O)NCC(=O)O", "note": "[VDKPPYLPRPRGPRRIYNRG]", "values": [{"measurement": "MIC", "setting": "[13]", "result": 0.0872, "unit": "µM"}]}
{"compound": "CC[C@H](C)[C@H](NC(=O)[C@H](CCCN=C(N)N)NC(=O)[C@H](CCCN=C(N)N)NC(=O)[C@@H]1CCCN1C(=O)[C@@H]1CCCN1C(=O)[C@H](CCCN=C(N)N)NC(=O)[C@@H]1CCCN1C(=O)[C@H](CCCN=C(N)N)NC(=O)[C@@H]1CCCN1C(=O)[C@H](CC(C)C)NC(=O)[C@H](Cc1ccc(O)cc1)NC(=O)[C@@H]1CCCN1C(=O)[C@@H]1CCCN1C(=O)[C@H](CCCCN)NC(=O)[C@H](CC(=O)O)NC(=O)[C@@H](N)C(C)C)C(=O)N[C@@H](Cc1ccc(O)cc1)C(=O)N[C@@H](CC(N)=O)C(=O)N[C@@H](Cc1cnc[nH]1)C(=O)NCC(=O)O", "note": "[VDKPPYLPRPRPPRRIYNHG]", "values": [{"measurement": "MIC", "setting": "[13]", "result": 0.123, "unit": "µM"}]}
